Inconclusive results and toxic doses are left out. No stated cut-off is given here; in the data, active means T/C of 150% or more; inactive means T/C below 125%.
System: L1210 leukemia ip in BDF1 mice, survival T/C
Test: NCI In Vivo Anticancer Drug Screen. Data for tumor model L1210 Leukemia (intraperitoneal) in B6D2F1 (BDF1) mice
Conditions: endpoint: mean survival time, higher = longer survival
Outline: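 Ratio derived from survival: compound-dosed mice over vehicle-dosed mice, all bearing a transplantable tumor.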

[1] = dose: 100.0 mg/kg/injection, schedule: Q04DX003 (ip), vehicle: saline with Tween-80
[2] = dose: 200.0 mg/kg/injection, schedule: Q01DX009 (ip), vehicle: saline with Tween-80
[3] = dose: 200.0 mg/kg/injection, schedule: Q04DX003 (ip), vehicle: saline with Tween-80
[4] = dose: 400.0 mg/kg/injection, schedule: Q04DX003 (ip), vehicle: saline with Tween-80
[5] = dose: 50.0 mg/kg/injection, schedule: Q04DX002 (ip), vehicle: saline with Tween-80
[6] = dose: 100.0 mg/kg/injection, schedule: Q04DX002 (ip), vehicle: saline with Tween-80
[7] = dose: 200.0 mg/kg/injection, schedule: Q04DX002 (ip), vehicle: saline with Tween-80
[8] = dose: 100.0 mg/kg/injection, schedule: Q01DX001 (ip), vehicle: carboxymethylcellulose (CMC)
[9] = dose: 200.0 mg/kg/injection, schedule: Q01DX001 (ip), vehicle: carboxymethylcellulose (CMC)
[10] = dose: 400.0 mg/kg/injection, schedule: Q01DX001 (ip), vehicle: carboxymethylcellulose (CMC)
[11] = dose: 75.0 mg/kg/injection, schedule: Q01DX001 (ip), vehicle: other

Measured: T/C

CC(=O)OC1C(C=C(C)C)OC2CC3(C)C4=C(CCC3(C)C2C1C)C1(C)CCC(O)C(C)(C)C1CC4 (stereo unspecified)
inactive: dose: 20.0 mg/kg/injection, schedule: Q01DX001 (sc), vehicle: steriod suspending solution 104 % of control | dose: 40.0 mg/kg/injection, schedule: Q01DX001 (sc), vehicle: steriod suspending solution 102 % of control | dose: 50.0 mg/kg/injection, schedule: Q01DX001 (sc), vehicle: steriod suspending solution 101 % of control | dose: 80.0 mg/kg/injection, schedule: Q01DX001 (sc), vehicle: steriod suspending solution 102 % of control | dose: 100.0 mg/kg/injection, schedule: Q01DX001 (sc), vehicle: steriod suspending solution 92 % of control | dose: 160.0 mg/kg/injection, schedule: Q01DX001 (sc), vehicle: steriod suspending solution 102 % of control | dose: 200.0 mg/kg/injection, schedule: Q01DX001 (sc), vehicle: steriod suspending solution 97 % of control | dose: 400.0 mg/kg/injection, schedule: Q01DX001 (sc), vehicle: steriod suspending solution 106 % of control

CS(=O)(=O)NCCOc1ccc(C(=O)O)cc1
inactive: dose: 100.0 mg/kg/injection, schedule: Q04DX003 (ip), vehicle: Klucel (hydroxypropylcellulose) (HPC) 96 % of control | dose: 200.0 mg/kg/injection, schedule: Q04DX003 (ip), vehicle: Klucel (hydroxypropylcellulose) (HPC) 101 % of control | dose: 400.0 mg/kg/injection, schedule: Q04DX003 (ip), vehicle: Klucel (hydroxypropylcellulose) (HPC) 95 % of control

CCCCCCCCOc1ccccn1
inactive: dose: 100.0 mg/kg/injection, schedule: Q01DX009 (ip), vehicle: saline with Tween-80 110 % of control | [1] 100 % of control | [2] 91 % of control | [3] 105 % of control | [4] 103 % of control

CN(C)N=Nc1ccc([N+](=O)[O-])cc1Cl
inactive: [1] 101 % of control | dose: 134.0 mg/kg/injection, schedule: Q01DX009 (ip), vehicle: saline with Tween-80 113 % of control | [2] 115 % of control | [3] 105 % of control | [4] 112 % of control

COc1ccc(OCCCO)cc1
inactive: dose: 100.0 mg/kg/injection, schedule: Q04DX002 (ip), vehicle: Klucel (hydroxypropylcellulose) (HPC) 108 % of control | dose: 200.0 mg/kg/injection, schedule: Q04DX002 (ip), vehicle: Klucel (hydroxypropylcellulose) (HPC) 105 % of control | dose: 400.0 mg/kg/injection, schedule: Q04DX002 (ip), vehicle: Klucel (hydroxypropylcellulose) (HPC) 97 % of control

C=C(C)CC1(CC2SCCCS2)SCCCS1
inactive: dose: 25.0 mg/kg/injection, schedule: Q04DX002 (ip), vehicle: saline with Tween-80 98 % of control | [5] 106 % of control | [6] 88 % of control | [7] 98 % of control

CC(=N/N(Cc1ccccc1)c1ccccc1)/C(C)=N/N(Cc1ccccc1)c1ccccc1
inactive: dose: 100.0 mg/kg/injection, schedule: Q01DX001 (ip), vehicle: other 89 % of control | dose: 200.0 mg/kg/injection, schedule: Q01DX001 (ip), vehicle: other 89 % of control | dose: 400.0 mg/kg/injection, schedule: Q01DX001 (ip), vehicle: other 89 % of control

BrCC1COc2ccccc2O1 (stereo unspecified)
inactive: [8] 100 % of control | [9] 100 % of control | [10] 91 % of control

CN(C)Cc1ccc([N+](=O)[O-])cc1
inactive: dose: 25.0 mg/kg/injection, schedule: Q01DX009 (ip), vehicle: saline 93 % of control | dose: 50.0 mg/kg/injection, schedule: Q01DX009 (ip), vehicle: saline 98 % of control | [11] 98 % of control | dose: 100.0 mg/kg/injection, schedule: Q01DX009 (ip), vehicle: saline 101 % of control | dose: 100.0 mg/kg/injection, schedule: Q04DX003 (ip), vehicle: saline 95 % of control | dose: 200.0 mg/kg/injection, schedule: Q01DX009 (ip), vehicle: saline 96 % of control | dose: 200.0 mg/kg/injection, schedule: Q04DX003 (ip), vehicle: saline 87 % of control

COC(=O)C12OCC34C(CC5C(C)=C(O)C(=O)CC5(C)C3C(O)C1O)OC(=O)C(OC(=O)/C=C(\C)C(C)(C)O)C24 (stereo unspecified)
inactive: dose: 0.06 mg/kg/injection, schedule: Q01DX009 (ip), vehicle: saline with Tween-80 116 % of control | dose: 0.5 mg/kg/injection, schedule: Q01DX009 (ip), vehicle: saline with Tween-80 112 % of control | dose: 1.0 mg/kg/injection, schedule: Q01DX009 (ip), vehicle: saline with Tween-80 105 % of control | dose: 2.0 mg/kg/injection, schedule: Q01DX009 (ip), vehicle: saline with Tween-80 107 % of control

COC1(OC)C2(Cl)C=C(c3ccccc3)C1(Cl)C(Cl)=C2Cl (stereo unspecified)
inactive: [8] 92 % of control | [9] 97 % of control | [10] 94 % of control

O=C1NCCc2c1sc1ccccc21
inactive: [8] 95 % of control | [10] 90 % of control

COc1ccc(-n2c(O)c(N=Nc3ccc(Cl)cc3)c(=O)n(-c3ccccc3)c2=S)cc1
inactive: dose: 37.5 mg/kg/injection, schedule: Q01DX001 (ip), vehicle: Klucel (hydroxypropylcellulose) (HPC) 89 % of control | dose: 75.0 mg/kg/injection, schedule: Q01DX001 (ip), vehicle: Klucel (hydroxypropylcellulose) (HPC) 94 % of control | dose: 150.0 mg/kg/injection, schedule: Q01DX001 (ip), vehicle: Klucel (hydroxypropylcellulose) (HPC) 92 % of control

CC1(C)CC(=NNC(N)=S)CC(C)(C)N1O
inactive: dose: 25.0 mg/kg/injection, schedule: Q04DX002 (ip), vehicle: saline 102 % of control | [5] 93 % of control | dose: 50.0 mg/kg/injection, schedule: Q04DX002 (ip), vehicle: saline 94 % of control | [6] 101 % of control

COc1ccc(/C(C)=N/N=C(\C)c2ccc(OC)cc2)cc1
inactive: [3] 94 % of control | [4] 91 % of control

NCCP(=O)(O)c1ccccc1
inactive: dose: 100.0 mg/kg/injection, schedule: Q01DX001 (ip), vehicle: saline 94 % of control | dose: 200.0 mg/kg/injection, schedule: Q01DX001 (ip), vehicle: saline 93 % of control | dose: 400.0 mg/kg/injection, schedule: Q01DX001 (ip), vehicle: saline 93 % of control

CCNC(=S)NC1CCCCCCCCCCC1
inactive: [6] 94 % of control | [7] 87 % of control

[N-]=[N+]=C1C(Cl)=C(Cl)C(Cl)=C1Cl
inactive: [11] 96 % of control | dose: 150.0 mg/kg/injection, schedule: Q01DX001 (ip), vehicle: other 102 % of control

NC(N)=Nc1ccc(OC(=O)c2ccc(N=C(N)N)cc2)cc1
inactive: dose: 25.0 mg/kg/injection, schedule: Q01DX009 (ip), vehicle: water 96 % of control | dose: 50.0 mg/kg/injection, schedule: Q01DX009 (ip), vehicle: water 96 % of control

CC1CCC2(C)CCC(C(C)C)C2(O)CC1 (stereo unspecified)
inactive: dose: 50.0 mg/kg/injection, schedule: Q01DX009 (ip), vehicle: saline sonified 90 % of control | dose: 100.0 mg/kg/injection, schedule: Q01DX009 (ip), vehicle: saline sonified 97 % of control | dose: 100.0 mg/kg/injection, schedule: Q04DX003 (ip), vehicle: saline sonified 107 % of control | dose: 200.0 mg/kg/injection, schedule: Q01DX009 (ip), vehicle: saline sonified 92 % of control | dose: 200.0 mg/kg/injection, schedule: Q04DX003 (ip), vehicle: saline sonified 100 % of control

NC(CSS(=O)(=O)O)=NCc1ccccc1
inactive: dose: 12.5 mg/kg/injection, schedule: Q04DX002 (ip), vehicle: Klucel (hydroxypropylcellulose) (HPC) 114 % of control | dose: 25.0 mg/kg/injection, schedule: Q04DX002 (ip), vehicle: Klucel (hydroxypropylcellulose) (HPC) 101 % of control | dose: 50.0 mg/kg/injection, schedule: Q04DX002 (ip), vehicle: Klucel (hydroxypropylcellulose) (HPC) 97 % of control
